# Assay results published in PubChem BioAssay (NCI).
#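 Values below derive from 48-hour exposures of cells grown in 96-well plates, with endpoints linearly interpolated between the two concentrations bracketing the appropriate inhibition level. GI50 = concentration required for 50% inhibition of growth. At the TGI there is no net growth.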
# Columns and labels:
# Experiment in all cases: DTP human tumour cell line panel, 48 h
# DU-145 prostate = test system: DU-145 prostate
# NCI/ADR-RES ovarian = test system: NCI/ADR-RES ovarian
# EKVX NSCLC = test system: EKVX NSCLC
# UACC-257 melanoma = test system: UACC-257 melanoma
# RPMI-8226 leukemia = test system: RPMI-8226 leukemia
# SF-295 CNS = test system: SF-295 CNS
# HOP-62 NSCLC = test system: HOP-62 NSCLC
# MDA-N = test system: MDA-N
# MALME-3M melanoma = test system: MALME-3M melanoma
# T-47D breast = test system: T-47D breast
Structure (SMILES),TGI (DU-145 prostate),TGI (NCI/ADR-RES ovarian),TGI (EKVX NSCLC),TGI (UACC-257 melanoma),TGI (RPMI-8226 leukemia),TGI (SF-295 CNS),TGI (HOP-62 NSCLC),TGI (MDA-N),TGI (MALME-3M melanoma),TGI (T-47D breast),GI50 (MALME-3M melanoma),GI50 (RPMI-8226 leukemia)
CSc1nc(C)cc(Nc2ccc(O)c(CN3CCOCC3)c2)n1,> 100 µM,> 100 µM,> 100 µM,> 100 µM,> 100 µM,> 100 µM,> 100 µM,> 100 µM,> 100 µM,> 100 µM,,
NC(N)=NS(=O)(=O)c1ccc(N/N=C2/CCOC2=O)cc1,> 100 µM,> 100 µM,> 100 µM,> 100 µM,> 100 µM,> 100 µM,77.8 µM,> 100 µM,> 100 µM,> 100 µM,,
COc1cc(CSc2ccc(O)cc2)cc(OC)c1OC,> 100 µM,83.6 µM,> 100 µM,> 100 µM,66.1 µM,95 µM,> 100 µM,> 100 µM,> 100 µM,55.5 µM,,
CCCNC(=S)N/N=C(\C)c1ccc(S(=O)(=O)N(C)c2ccccc2)cc1,> 100 µM,> 100 µM,> 100 µM,> 100 µM,> 31.6 µM,58 µM,29 µM,> 100 µM,> 100 µM,> 100 µM,,
Cc1nc(SCC(=O)Nc2ccc(Cl)cc2)c2sc(=S)n(-c3ccccc3)c2n1,> 10 µM,> 10 µM,> 10 µM,> 10 µM,> 10 µM,> 10 µM,> 10 µM,> 10 µM,> 10 µM,> 10 µM,,
COc1cc(C)c(/C=C2/N=C(c3ccccc3)OC2=O)c([N+](=O)[O-])c1OC,> 100 µM,> 100 µM,> 100 µM,> 100 µM,> 100 µM,> 100 µM,> 100 µM,> 100 µM,> 100 µM,> 100 µM,,
CSC1(C)C(=O)Nc2c(OCc3ccccc3)cc([N+](=O)[O-])cc21 (configuration not stated),> 100 µM,> 100 µM,> 100 µM,> 100 µM,> 100 µM,> 100 µM,> 100 µM,> 100 µM,> 100 µM,> 100 µM,,
COc1cc2c(c(OC)c1OC)C(=O)[C@@H]1[C@H]2N1C(=O)NCCCl,> 100 µM,> 100 µM,> 100 µM,> 100 µM,> 100 µM,> 100 µM,> 100 µM,> 100 µM,> 100 µM,> 100 µM,,
COc1cccc(C23CCCC(C2)NCC3Br)c1OC (configuration not stated),> 100 µM,> 100 µM,> 100 µM,> 100 µM,45.7 µM,> 100 µM,> 100 µM,> 100 µM,> 100 µM,> 100 µM,,
NS(=O)(=O)c1nnc(NC(=O)C23CC4CC(CC(C4)C2)C3)s1,> 100 µM,> 100 µM,> 100 µM,> 100 µM,> 100 µM,> 100 µM,> 100 µM,> 100 µM,> 100 µM,> 100 µM,,
CCOC(=O)c1cc(-n2nnc3ccccc32)cn1C,> 10 µM,> 10 µM,> 10 µM,> 10 µM,> 10 µM,> 10 µM,> 10 µM,> 10 µM,> 10 µM,> 10 µM,,
N#CC(N=Nc1ccccc1C(=O)O)C(N)=O (configuration not stated),> 100 µM,> 100 µM,> 100 µM,> 100 µM,> 100 µM,> 100 µM,> 100 µM,> 100 µM,> 100 µM,> 100 µM,,
COC(=O)C1CCN(C(=O)OC(C)(C)C)CC1,> 100 µM,> 100 µM,> 100 µM,> 100 µM,> 100 µM,> 100 µM,> 100 µM,> 100 µM,> 100 µM,> 100 µM,,
COC(=O)/C=C\C(C#N)(C#N)N=Cc1cccc(OC)c1,27.7 µM,35.7 µM,23.8 µM,29.8 µM,> 28 µM,53.8 µM,> 62.1 µM,17.2 µM,4.37 µM,18.9 µM,,
COc1ccc([N+](=O)[O-])c2c(NCCCN(C)C)ccnc12,29.1 µM,42.2 µM,22.8 µM,12 µM,6.53 µM,24.8 µM,15.6 µM,27 µM,5.62 µM,29 µM,,
CC1(C)[C@@H]2C[C@H]1[C@@H](Cc1cccc(C[C@H]3c4cc(-c5ccccn5)ncc4[C@H]4C[C@@H]3C4(C)C)c1)c1cc(-c3ccccn3)ncc12,> 24.7 µM,40.3 µM,> 60 µM,> 100 µM,> 26.4 µM,> 100 µM,> 100 µM,> 100 µM,8.14 µM,> 49.3 µM,1.78 µM,
COCCN(CCNC(=O)c1cccc2c(N)c3cccc(C)c3nc12)CCOC,9.64 µM,33.7 µM,7.7 µM,19.9 µM,5.91 µM,> 22.9 µM,11.3 µM,2.75 µM,1.96 µM,27.5 µM,,
CC1(c2sccc2Cl)CC(c2sccc2Cl)=C(C#N)C(=C(C#N)C#N)N1 (configuration not stated),31.2 µM,57.8 µM,34 µM,39.2 µM,88 µM,35.2 µM,37.3 µM,35 µM,32.8 µM,42.1 µM,,
CC(O)C1(CNc2cc(Cl)nc(N)n2)CCCCC1 (configuration not stated),> 100 µM,> 100 µM,> 100 µM,> 100 µM,> 100 µM,> 100 µM,> 100 µM,> 100 µM,> 100 µM,> 100 µM,,
Cc1c(C)c(C)c(Cn2[nH]c(=O)n(C)c2=O)c(C)c1C,> 100 µM,> 100 µM,> 100 µM,> 100 µM,> 100 µM,> 100 µM,> 100 µM,> 100 µM,> 100 µM,> 100 µM,,
S=C(N/N=C(\c1ccccc1)c1ccccn1)NC1CCCCC1,> 100 µM,1.59 µM,> 100 µM,> 100 µM,> 100 µM,> 80.1 µM,> 100 µM,> 100 µM,> 100 µM,> 100 µM,,
CCCCn1c(CSc2ccc(Cl)cc2)c(C(=O)OCC)c2cc(OC)c(Br)cc21,> 100 µM,> 100 µM,> 100 µM,> 100 µM,> 100 µM,> 100 µM,> 100 µM,> 100 µM,> 100 µM,> 100 µM,,
CCOC(=O)c1nc2ccc(C(F)(F)F)cc2nc1Nc1cc(OC)c(OC)c(OC)c1,> 100 µM,> 100 µM,> 100 µM,> 100 µM,> 100 µM,> 100 µM,> 100 µM,> 100 µM,> 100 µM,> 100 µM,,
CCOC(=O)C(NC(=O)c1ccccc1)(Nc1ccc(S(=O)(=O)Nc2ncccn2)cc1)C(F)(F)F (configuration not stated),> 100 µM,> 100 µM,> 100 µM,> 100 µM,> 100 µM,> 100 µM,> 100 µM,> 100 µM,> 100 µM,> 100 µM,,
CC(Oc1ccccc1Cl)C(=O)NN1C(=O)CC(=O)N(c2ccccc2)C1=S (configuration not stated),> 100 µM,> 100 µM,> 100 µM,> 100 µM,> 100 µM,> 100 µM,> 100 µM,> 100 µM,> 100 µM,> 100 µM,,
CN(C)c1ccc(/C=C/c2ccc(S(N)(=O)=O)cc2)cc1,49.8 µM,40 µM,52.5 µM,> 100 µM,> 100 µM,46.8 µM,36.6 µM,> 100 µM,37.6 µM,80.4 µM,,11.6 µM
COC(=O)c1c(C(=O)OC)c2ccccn2c1-c1cc(OC)c(Br)c(=O)o1,> 100 µM,> 100 µM,> 100 µM,> 100 µM,> 100 µM,> 100 µM,> 100 µM,> 100 µM,> 100 µM,> 100 µM,,
